{"source": "patent US4260612A", "about": "“Antiallergic nitrogen bridge-head compounds” (Chinoin Gyogyszer es Vecyeszeti Termekek Gyara Rt., priority 1977, dated 1981)", "key": {"[1]": {"system": "histamine", "test": "Released histamine in vitro (antiallergic tests incl. Church-test)", "assay_type": "cell-based, rats", "settings": "Rattus norvegicus; read-out: Released histamine in vitro, ED50", "description": "(§1) The tests were carried out by the PCA test-method (Ovary: J. Immun. 81, 355, 1958) and the Church-test (British J. Pharm. 46, 56-66, 1972; Immunology 29, 527-534, 1975) and as comparing substance disodium chromoglycate is used. The test is carried out in rats."}, "[2]": {"system": "allergic reactions", "test": "PCA test (antiallergic activity, rats)", "assay_type": "in vivo", "settings": "for ED50: Rattus norvegicus, iv; for ED50 / percental activity in the PCA test: rats", "description": "as §1"}, "[3]": {"system": "allergic symptoms", "settings": "orally; background statement; cited from earlier work"}}, "data": [{"compound": "CC1CC=C(Nc2ccccc2)c2ncc(C(=O)O)c(=O)n21", "note": "(stereo not shown) [Example 1, 9-(phenyl-amino)-6-methyl-4-oxo-6,7-dihydro-4H-pyrido[1,2-a]pyrimidine-3-carboxylic acid]", "values": [{"measurement": "IC50", "setting": "[1]", "value": 12.3, "unit": "µM"}, {"measurement": "ED50", "setting": "[2]", "value": 1.3, "unit": "µmol/kg"}, {"measurement": "percental activity in the PCA test", "setting": "[2]; single i.v. dose of 10 μmole/kg", "value": 60, "unit": "%"}, {"measurement": "percental activity in the PCA test", "setting": "[2]; single i.v. dose of 320 μmole/kg", "value": 100, "unit": "%"}]}, {"compound": "O=C(O)c1cc(=O)c2c(OCC(O)COc3cccc4oc(C(=O)O)cc(=O)c34)cccc2o1", "note": "[disodium chromoglycolate, reference compound]", "values": [{"measurement": "ED50", "setting": "[2]", "value": 1, "unit": "µmol/kg"}, {"measurement": "route dependence / oral activity", "setting": "[2]; oral versus i.v., words", "value": "effective only when administered intravenously"}, {"measurement": "oral activity of antiasthmatic agent", "setting": "[3]", "value": "not active orally"}]}]}
